# Test results published in patent US20250340575A1, “4-AMINOPYRROLO[2,1-F][1,2,4]TRIAZINES AND PREPARATION AND USES THEREOF” (Biosplice Therapeutics, Inc., priority 2024, published 2025).
# Biological target: recombinant DYRK1A kinase (Homo sapiens, UniProt Q13627)
# Test: DYRK1A kinase assay (Ser/Thr 18 peptide Z-lyte FRET)
# Format: biochemical
# Settings: DYRK1A 0.25 μg/mL, ATP 15 μM, Ser/Thr peptide 18 4 μM, one hour at room temperature, 11-point dose-response from 10 μM
row,Compound,IC50 [nM]
1,"CNc1nc(N[C@H]2CCN(C3COC3)C[C@H]2F)nn2ccc(-c3ccc4nnn(CCF)c4n3)c12 [Compound 236, N^2-((3R,4S)-3-fluoro-1-(oxetan-3-yl)piperidin-4-yl)-5-(3-(2-fluoroethyl)-3H-[1,2,3]triazolo[4,5-b]pyridin-5-yl)-N^4-methylpyrrolo[2,1-f][1,2,4]triazine-2,4-diamine]",2.1
2,"CNc1nc(N[C@@H]2CCN(C)CC2(F)F)nn2ccc(-c3ccc4nnn(CCF)c4n3)c12 [Compound 237, (R)—N^2-(3,3-Difluoro-1-methylpiperidin-4-yl)-5-(3-(2-fluoroethyl)-3H-[1,2,3]triazolo[4,5-b]pyridin-5-yl)-N^4-methylpyrrolo[2,1-f][1,2,4]triazine-2,4-diamine]",0.7
3,"CNc1nc(N[C@@H]2CCN(C3COC3)CC2(F)F)nn2ccc(-c3ccc4nnn(CCF)c4n3)c12 [Compound 239, (R)—N^2-(3,3-Difluoro-1-(oxetan-3-yl)piperidin-4-yl)-5-(3-(2-fluoroethyl)-3H-[1,2,3]triazolo[4,5-b]pyridin-5-yl)-N^4-methylpyrrolo[2,1-f][1,2,4]triazine-2,4-diamine]",0.6
4,"CNc1nc(N[C@H]2CC[C@](C)(O)CC2)nn2cc(F)c(-c3ccc4nnn(CCF)c4n3)c12 [Compound 248, (1r,4r)-4-((6-Fluoro-5-(3-(2-fluoroethyl)-3H-[1,2,3]triazolo[4,5-b]pyridin-5-yl)-4-(methylamino)pyrrolo[2,1-f][1,2,4]triazin-2-yl)amino)-1-methylcyclohexan-1-ol]",2
5,"CNc1nc(N[C@H]2CCN(C(C)=O)C[C@H]2F)nn2cc(F)c(-c3ccc4nnn(CCF)c4n3)c12 [Compound 249, 1-((3R,4S)-3-Fluoro-4-((6-fluoro-5-(3-(2-fluoroethyl)-3H-[1,2,3]triazolo[4,5-b]pyridin-5-yl)-4-(methylamino)pyrrolo[2,1-f][1,2,4]triazin-2-yl)amino)piperidin-1-yl)ethan-1-one]",1.9
6,"CNc1nc(N[C@H]2CCN(C3COC3)C[C@H]2F)nn2cc(F)c(-c3ccc4nnn(CCF)c4n3)c12 [Compound 250, 6-Fluoro-N^2-((3R,4S)-3-fluoro-1-(oxetan-3-yl)piperidin-4-yl)-5-(3-(2-fluoroethyl)-3H-[1,2,3]triazolo[4,5-b]pyridin-5-yl)-N^4-methylpyrrolo[2,1-f][1,2,4]triazine-2,4-diamine]",0.7
7,"CNc1nc(N[C@@H]2CCN(C)CC2(F)F)nn2cc(F)c(-c3ccc4nnn(CCF)c4n3)c12 [Compound 251, (R)—N^2-(3,3-Difluoro-1-methylpiperidin-4-yl)-6-fluoro-5-(3-(2-fluoroethyl)-3H-[1,2,3]triazolo[4,5-b]pyridin-5-yl)-N^4-methylpyrrolo[2,1-f][1,2,4]triazine-2,4-diamine]",2.2
8,"CNc1nc(N[C@@H]2CCN(C(C)=O)CC2(F)F)nn2cc(F)c(-c3ccc4nnn(CCF)c4n3)c12 [Compound 252, (R)-1-(3,3-Difluoro-4-((6-fluoro-5-(3-(2-fluoroethyl)-3H-[1,2,3]triazolo[4,5-b]pyridin-5-yl)-4-(methylamino)pyrrolo[2,1-f][1,2,4]triazin-2-yl)amino)piperidin-1-yl)ethan-1-one]",1.9
9,"CNc1nc(N[C@@H]2CCN(C3COC3)CC2(F)F)nn2cc(F)c(-c3ccc4nnn(CCF)c4n3)c12 [Compound 254, (R)—N^2-(3,3-Difluoro-1-(oxetan-3-yl)piperidin-4-yl)-6-fluoro-5-(3-(2-fluoroethyl)-3H-[1,2,3]triazolo[4,5-b]pyridin-5-yl)-N^4-methylpyrrolo[2,1-f][1,2,4]triazine-2,4-diamine]",2.2
10,"COCCN1CC[C@H](Nc2nc(N)c3c(-c4ccc5nnn(CC(F)F)c5n4)ccn3n2)[C@H](F)C1 [Compound 256, 5-(3-(2,2-Difluoroethyl)-3H-[1,2,3]triazolo[4,5-b]pyridin-5-yl)-N^2-((3R,4S)-3-fluoro-1-(2-methoxyethyl)piperidin-4-yl)pyrrolo[2,1-f][1,2,4]triazine-2,4-diamine]",3.5
11,"C[C@]1(O)CC[C@H](Nc2nc(N)c3c(-c4ccc5nnn(CC(F)F)c5n4)c(F)cn3n2)CC1 [Compound 257, (1r,4r)-4-((4-Amino-5-(3-(2,2-difluoroethyl)-3H-[1,2,3]triazolo[4,5-b]pyridin-5-yl)-6-fluoropyrrolo[2,1-f][1,2,4]triazin-2-yl)amino)-1-methylcyclohexan-1-ol]",1.4
12,"CC(=O)N1CC[C@H](Nc2nc(N)c3c(-c4ccc5nnn(CC(F)F)c5n4)c(F)cn3n2)[C@H](F)C1 [Compound 258, 1-((3R,4S)-4-((4-amino-5-(3-(2,2-difluoroethyl)-3H-[1,2,3]triazolo[4,5-b]pyridin-5-yl)-6-fluoropyrrolo[2,1-f][1,2,4]triazin-2-yl)amino)-3-fluoropiperidin-1-yl)ethan-1-one]",1.3
13,"Nc1nc(N[C@H]2CCN(C3COC3)C[C@H]2F)nn2cc(F)c(-c3ccc4nnn(CC(F)F)c4n3)c12 [Compound 260, 5-(3-(2,2-Difluoroethyl)-3H-[1,2,3]triazolo[4,5-b]pyridin-5-yl)-6-fluoro-N^2-((3R,4S)-3-fluoro-1-(oxetan-3-yl)piperidin-4-yl)pyrrolo[2,1-f][1,2,4]triazine-2,4-diamine]",1.8
14,"CN1CC[C@@H](Nc2nc(N)c3c(-c4ccc5nnn(CC(F)F)c5n4)c(F)cn3n2)C(F)(F)C1 [Compound 261, (R)—N^2-(3,3-Difluoro-1-methylpiperidin-4-yl)-5-(3-(2,2-difluoroethyl)-3H-[1,2,3]triazolo[4,5-b]pyridin-5-yl)-6-fluoropyrrolo[2,1-f][1,2,4]triazine-2,4-diamine]",0.6
15,"CC(=O)N1CC[C@@H](Nc2nc(N)c3c(-c4ccc5nnn(CC(F)F)c5n4)c(F)cn3n2)C(F)(F)C1 [Compound 262, (R)-1-(4-((4-Amino-5-(3-(2,2-difluoroethyl)-3H-[1,2,3]triazolo[4,5-b]pyridin-5-yl)-6-fluoropyrrolo[2,1-f][1,2,4]triazin-2-yl)amino)-3,3-difluoropiperidin-1-yl)ethan-1-one]",1.3
16,"Nc1nc(N[C@@H]2CCN(C3COC3)CC2(F)F)nn2cc(F)c(-c3ccc4nnn(CC(F)F)c4n3)c12 [Compound 264, (R)—N^2-(3,3-Difluoro-1-(oxetan-3-yl)piperidin-4-yl)-5-(3-(2,2-difluoroethyl)-3H-[1,2,3]triazolo[4,5-b]pyridin-5-yl)-6-fluoropyrrolo[2,1-f][1,2,4]triazine-2,4-diamine]",1.2

# The next lines start with the values.
row,IC50 [nM],Compound
1,1.4,"CNc1nc(N[C@@H]2CCN(C(C)=O)CC2(F)F)nn2ccc(-c3ccc4nnn(CCF)c4n3)c12 [Compound 238, (R)-1-(3,3-Difluoro-4-((5-(3-(2-fluoroethyl)-3H-[1,2,3]triazolo[4,5-b]pyridin-5-yl)-4-(methylamino)pyrrolo[2,1-f][1,2,4]triazin-2-yl)amino)piperidin-1-yl)ethan-1-one]"
2,0.5,"CC[C@]1(O)C[C@H](Nc2nc(NC)c3c(-c4ccc5nnn(CC(F)F)c5n4)ccn3n2)C1 [Compound 267, (1r,3s)-3-((5-(3-(2,2-Difluoroethyl)-3H-[1,2,3]triazolo[4,5-b]pyridin-5-yl)-4-(methylamino)pyrrolo[2,1-f][1,2,4]triazin-2-yl)amino)-1-ethylcyclobutan-1-ol]"
3,1.7,"CNc1nc(NC2CCN(CC(F)F)CC2)nn2ccc(-c3ccc4nnn(CC(F)F)c4n3)c12 [Compound 270, 5-(3-(2,2-Difluoroethyl)-3H-[1,2,3]triazolo[4,5-b]pyridin-5-yl)-N^2-(1-(2,2-difluoroethyl)piperidin-4-yl)-N^4-methylpyrrolo[2,1-f][1,2,4]triazine-2,4-diamine]"
4,2.9,"CNc1nc(NC2CCN(C3COC3)CC2)nn2ccc(-c3ccc4nnn(CC(F)F)c4n3)c12 [Compound 271, 5-(3-(2,2-Difluoroethyl)-3H-[1,2,3]triazolo[4,5-b]pyridin-5-yl)-N^4-methyl-N^2-(1-(oxetan-3-yl)piperidin-4-yl)pyrrolo[2,1-f][1,2,4]triazine-2,4-diamine]"
5,5,"CNc1nc(N[C@@H]2CCN(C)C[C@@H]2F)nn2ccc(-c3ccc4nnn(CC(F)F)c4n3)c12 [Compound 272, 5-(3-(2,2-Difluoroethyl)-3H-[1,2,3]triazolo[4,5-b]pyridin-5-yl)-N^2-((3S,4R)-3-fluoro-1-methylpiperidin-4-yl)-N^4-methylpyrrolo[2,1-f][1,2,4]triazine-2,4-diamine]"
6,2.7,"CNc1nc(N[C@H]2CCN(C)C[C@H]2F)nn2ccc(-c3ccc4nnn(CC(F)F)c4n3)c12 [Compound 273, 5-(3-(2,2-Difluoroethyl)-3H-[1,2,3]triazolo[4,5-b]pyridin-5-yl)-N^2-((3R,4S)-3-fluoro-1-methylpiperidin-4-yl)-N^4-methylpyrrolo[2,1-f][1,2,4]triazine-2,4-diamine]"
7,3.6,"CNc1nc(N[C@H]2CCN(CCF)C[C@H]2F)nn2ccc(-c3ccc4nnn(CC(F)F)c4n3)c12 [Compound 274, 5-(3-(2,2-Difluoroethyl)-3H-[1,2,3]triazolo[4,5-b]pyridin-5-yl)-N^2-((3R,4S)-3-fluoro-1-(2-fluoroethyl)piperidin-4-yl)-N^4-methylpyrrolo[2,1-f][1,2,4]triazine-2,4-diamine]"
8,8.4,"CNc1nc(N[C@H]2CCN(CCOC)C[C@H]2F)nn2ccc(-c3ccc4nnn(CC(F)F)c4n3)c12 [Compound 275, 5-(3-(2,2-Difluoroethyl)-3H-[1,2,3]triazolo[4,5-b]pyridin-5-yl)-N^2-((3R,4S)-3-fluoro-1-(2-methoxyethyl)piperidin-4-yl)-N^4-methylpyrrolo[2,1-f][1,2,4]triazine-2,4-diamine]"
9,1.2,"CNc1nc(N[C@@H]2CCN(C(=O)CO)CC2(F)F)nn2ccc(-c3ccc4nnn(CC(F)F)c4n3)c12 [Compound 276, (R)-1-(4-((5-(3-(2,2-Difluoroethyl)-3H-[1,2,3]triazolo[4,5-b]pyridin-5-yl)-4-(methylamino)pyrrolo[2,1-f][1,2,4]triazin-2-yl)amino)-3,3-difluoropiperidin-1-yl)-2-hydroxyethan-1-one]"
